From US11484517B2, “Combination comprising a PPAR agonist such as elafibranor and an acetyl-CoA carboxylase (ACC) inhibitor” (GENFIT, priority 2017, dated 2022)

Columns and labels:
[1] = system: rats fed a CDAA+1% cholesterol diet; test: chronic CDAA+1% cholesterol fibrosing NASH-model of rats (12 weeks); format: in vivo, Wistar rats; details: liver; Percentage over the untreated CDAA + 1% cholesterol rats; GFT505 3 mg/kg/d, OCA 10 mg/kg/d
Protocol: Evaluation of Elafibranor, OCA and the combination Elafibranor+OCA in a chronic CDAA+1% cholesterol model (12 weeks).
The preventive effects of Elafibranor alone, OCA alone and the combination of both were assessed in a fibrosing NASH-model of rats fed a CDAA+1% cholesterol diet. 150-175 g male Wistar rats were fed a control (CSAA) diet, CDAA+1% cholesterol diet, or CDAA+1% cholesterol diet supplemented with Elafibranor 1, 3 and 10 mg/kg/day, OCA 10 and 30 mg/kg/day or combined drugs (Elafibranor 1, 3 and 10 mg/kg/day combined to OCA 10 mg/kg/day) for 12 weeks.
The body weight and the food intake were monitored twice per week. On the last day of treatment, rats were sacrificed after a 6 h fasting period. The liver was rapidly excised for biochemical and histological studies.
A technician blinded to the source of each liver specimen performed histological examinations. Virtual slides were generated using the Pannoramic 250 scanner from 3D Histech. […] Briefly, steatosis, lobular inflammation and hepatocytes ballooning were scored. […]
(§1) Using Quant Center software (3D Histech, including Pattern Quant and Histo Quant modules), collagen-stained areas were quantified. […] The fibrosis area was then expressed as the percentage of the collagen surface to the whole tissue per animal.
(§2) The hepatic collagen content was determined using the appropriate QuickZyme kit (Total collagen assay, cat # QZB-totcol2). […]
(§3) Complete hydrolysis of tissue samples in 6M HCl at 95° C. is required before dosing the hydroxyproline. The assay results in the generation of a chromogen with a maximum absorbance at 570 nm. Results are expressed as mg of collagen/g of liver. […]
Quantitative PCR was then carried out using the CFX96 TOUCH Real-Time PCR Detection System (Biorad). […]
Expression levels were normalized using the expression of RPLP0 gene as a housekeeping gene of reference in samples. […] Expression levels were determined using the standard curve equation for both the housekeeping gene and the target gene (taking into account the specific PCR efficiency of each target gene).

TGFβ1-induced hHSC = test: α-SMA ELISA in TGFβ1-induced hHSC; format: cell-based, human
Protocol: (§4) The human primary hepatic stellate cells (hHSC) (Innoprot) were cultured under standard conditions, as described above.
The level of α-SMA was measured using a Sandwich ELISA. Briefly, the wells of an ELISA plate were first coated with the capture antibody (mouse monoclonal anti-ACTA2, Abnova) at 4° C. overnight. […] The cell lysates were transferred into the wells for binding to the capture antibody for a period of 2 h at room temperature. After the washing procedure, the detection antibody (biotinylated mouse monoclonal anti-ACTA2, Abnova) was added for 2 hours at room temperature followed by 3 washes. […] Upon oxidation, TMB forms a water-soluble blue reaction product that becomes yellow with addition of sulfuric acid (solution stop), enabling accurate measurement of the intensity at 450 nm using a spectrophotometer. The developed color is directly proportional to the amount of α-SMA present in the lysate.
as §4

CDFF-fed mice = test: mouse fibrosing-NASH model, CDFF diet (8 weeks); format: in vivo, C57Bl/6J mice
Protocol: The preventive effects of the combinations of elafibranor with selonsertib, GKT-831 or GS-0976 were assessed in mice fed a choline-deficient, […] diet (CDAA) supplemented with 2% cholesterol, 30% milk fat diet and high fructose corn syrup 55 (55% fructose/45% glucose for a final concentration of 42 g/L) in drinking water (Mells et al J Nutr Biochem 2015) (CDFF diet). 5-6 weeks old male C57Bl/6J mice were fed a control (CSAA) diet (n=4), CDFF (n=12), or CDFF supplemented with elafibranor (1 or 3 mg/kg/day), selonsertib (30 mg/kg/day), GKT-831 ([…]) alone or in combination (n=8 per group) for 8 weeks.
The body weight, the food and water intake were monitored twice per week. On the last day of treatment, plasma samples were obtained from retro-orbital blood sampling and mice were sacrificed after a 6 h-fasting period. The liver was rapidly excised for biochemical and histological analyses. […]
A technician blinded to the source of each liver specimen performed histological examinations. […] Briefly, steatosis, lobular inflammation and hepatocyte ballooning were scored. […]
as §1, §2, §3
The plasmatic concentration of PIIINP was determined using an ELISA assay from Cloud-Clone Corp (cat # SEA573Mu), according to the manufacturer's instructions. […] The enzyme-substrate reaction is terminated by the addition of sulphuric acid solution and the color change is measured spectrophotometrically at a wavelength of 450 nm±10 nm. […]

## CC[C@H]1[C@@H](O)[C@@H]2[C@H](CC[C@]3(C)[C@@H]([C@H](C)CCC(=O)O)CC[C@@H]23)[C@@]2(C)CC[C@@H](O)C[C@@H]12 [OCA, obeticholic acid]
[1]
  CCR5 mRNA level (marker of inflammation): 81% ± 28%
  TGFβ1 mRNA level: 110% ± 23%
  TIMP1 mRNA level: 110% ± 43%

## CCCCOCCOc1ccc(-c2ccc3c(c2)/C=C(/C(=O)Nc2ccc([S@@+]([O-])Cc4cncn4CCC)cc2)CCCN3CC(C)C)cc1 [CVC, Cenicriviroc]
TGFβ1-induced hHSC; 5 μM alone, TGFβ1-induced hHSC
  α-SMA inhibition, single agent: does not show any antifibrotic activity
TGFβ1-induced hHSC; TGFβ1-activated hHSC, all doses
  antifibrotic effect (α-SMA), single agent, in words: did not show a significant effect at all doses

## Cc1cc(F)c(C(=O)Nc2cccc(-c3nncn3C(C)C)n2)cc1-n1cnc(C2CC2)c1 [Selonsertib, selonsertib]
CDFF-fed mice; 8 weeks, elafibranor 3 mg/kg/day, selonsertib 30 mg/kg/day
  hepatic fibrosis (histology, hepatic collagen content, release of PIIINP and TIMP-1): improved hepatic fibrosis

## CN(C)c1cccc(-c2c3c(=O)n(-c4ccccc4Cl)[nH]c3cc(=O)n2C)c1 [GKT-831, 2-(2-chlorophenyl)-4-[3-(dimethylamino)phenyl]-5-methyl-1H-pyrazolo[4,3-c]pyridine-3,6(2H,5H)-dione]
CDFF-fed mice; GKT-831 60 mg/kg/day, elafibranor 1 mg/kg/day
  effect on NASH and fibrosis (inflammatory infiltrates, NAFLD activity score, fibrosis): no beneficial effect

## COc1ccccc1[C@H](Cn1c(=O)n(C(C)(C)C(=O)O)c(=O)c2c(C)c(-c3ncco3)sc21)OC1CCOCC1 [GS-0976]
CDFF-fed mice; GS-0976 30 mg/kg/day alone
  effect on liver fat and body weight: mild beneficial effect
